Patent publication US6069240A, “Cloning by complementation and related processes” (priority 1998, dated 2000)
pEC50, pIC50: −log10 of the molar value. “Also recorded” adds a separate entry of the source. Where two headings read alike, the source gives them in different places.

Columns and labels:
[1] = biological target: T1, rat DPD phosphodiesterase (Rattus norvegicus, UniProt P14646); test: Inhibition of phosphodiesterases by chemicals, cell free extracts of 10DAB yeast; format: biochemical
T1 construct: A large open reading frame of 562 codons was found; The first ATG appears at codon 46; made in house; host or cells: S. cerevisiae 10DAB (pde1-, pde2-), crude extract, vector pADNS
T1 sequence (P14646 220-736): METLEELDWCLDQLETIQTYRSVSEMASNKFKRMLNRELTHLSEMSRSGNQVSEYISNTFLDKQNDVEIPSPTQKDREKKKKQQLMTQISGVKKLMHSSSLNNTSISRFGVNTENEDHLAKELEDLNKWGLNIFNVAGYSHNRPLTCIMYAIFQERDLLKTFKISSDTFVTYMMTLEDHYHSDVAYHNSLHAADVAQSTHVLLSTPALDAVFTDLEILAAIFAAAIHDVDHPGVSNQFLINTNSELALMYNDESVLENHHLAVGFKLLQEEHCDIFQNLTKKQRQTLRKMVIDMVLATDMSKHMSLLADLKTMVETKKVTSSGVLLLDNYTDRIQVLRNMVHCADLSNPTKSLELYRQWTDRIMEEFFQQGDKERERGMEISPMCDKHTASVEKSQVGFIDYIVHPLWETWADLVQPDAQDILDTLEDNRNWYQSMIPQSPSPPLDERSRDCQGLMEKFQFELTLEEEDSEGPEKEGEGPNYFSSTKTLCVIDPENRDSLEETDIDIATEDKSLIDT

[2] = tested on: 10DAB cells expressing the cDNA of pRATDPD; test: Heat shock sensitivity of yeast expressing rat DPD; format: cell-based, S. cerevisiae; conditions: 100 μM for 40 minutes, then 50° C. for 30 minutes
Experimental: 10DAB cells, which are phosphodiesterase deficient, are sensitive to heat shock. As already discussed, when these cells acquire the capacity to express the cDNA of pRATDPD, they become resistant to heat shock. 10DAB cells expressing the cDNA of pRATDPD were maintained in rich medium (YPD) for three days at stationary phase. […] Control cultures were not treated with any inhibitor. These cultures were then heat shocked in glass tubes at 50° C. […] for 30 minutes. One microliter of each culture was plated.

[3] = tested on: yeast containing RAS2^va119 expressing the rat DPD gene; test: Heat shock phenotype reversal screen; format: cell-based; conditions: resistant cells incubated in agent
Description: The second type of pharmacological screen is applicable even when the mammalian gene encodes a protein of undetermined function, and, thus, cannot be assayed by a biochemical activity. In this method, agents to be tested are applied or introduced directly to the genetically altered microbial host expressing the mammalian protein. Agents capable of inhibiting the mammalian gene or gene product are identified by their ability to reverse the phenotype originally corrected by expression of the mammalian protein in the altered host.
This procedure has been used for mammalian cDNAs encoding cyclic nucleotide phosphodiesterases and a yeast containing RAS2^va119 as the host strain. When the rat DPD gene is introduced into the heat shock sensitive host and expressed, the host strain becomes heat shock resistant. […] This same approach can be applied to assess other genes.

[4] = tested on: dnc (plasmid pADDROSF, cDNA truncated at 5' end); test: Hydrolysis of 3H cAMP by yeast extracts (Dunce-like PDE clones); format: biochemical, Drosophila; conditions: 1 μM 3H cAMP, SD in parentheses
[5] = biological target: T2, dnc (plasmid pADDROSC, full-length) (Drosophila melanogaster, UniProt P12252); test: biochemical
T2 sequence (P12252 1-701 isoform P12252-3): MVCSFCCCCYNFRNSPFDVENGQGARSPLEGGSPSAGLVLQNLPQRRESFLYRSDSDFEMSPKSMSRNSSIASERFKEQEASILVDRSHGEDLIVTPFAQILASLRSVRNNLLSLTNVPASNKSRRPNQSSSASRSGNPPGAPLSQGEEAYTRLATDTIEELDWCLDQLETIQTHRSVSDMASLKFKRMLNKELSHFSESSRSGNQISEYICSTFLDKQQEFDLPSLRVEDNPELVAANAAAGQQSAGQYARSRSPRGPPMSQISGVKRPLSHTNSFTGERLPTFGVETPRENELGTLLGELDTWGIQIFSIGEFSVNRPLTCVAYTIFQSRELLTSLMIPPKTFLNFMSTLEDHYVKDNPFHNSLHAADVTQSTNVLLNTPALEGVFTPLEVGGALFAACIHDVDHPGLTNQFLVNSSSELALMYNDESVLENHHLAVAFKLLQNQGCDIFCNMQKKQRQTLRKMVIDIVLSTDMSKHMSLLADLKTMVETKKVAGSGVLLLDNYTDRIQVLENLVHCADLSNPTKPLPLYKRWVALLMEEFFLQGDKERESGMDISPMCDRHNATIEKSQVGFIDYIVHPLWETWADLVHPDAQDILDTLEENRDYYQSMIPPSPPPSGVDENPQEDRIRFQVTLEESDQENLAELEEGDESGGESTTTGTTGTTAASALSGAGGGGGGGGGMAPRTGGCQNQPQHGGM

[6] = tested on: human dunce-like PDEs (three human clones); test: Inhibition and kinetics of the human dunce-like PDEs; format: biochemical; conditions: for pIC50: range over the human clones, read-out: IC50s for the human clones; for IC50s fold higher than for their specific PDE classes: compared with literature values for the inhibitors' own PDE classes
[7] = tested on: Drosophila dnc encoded PDEs; test: Inhibition and kinetics of dnc encoded PDEs; format: biochemical; conditions: dnc gene product
[8] = tested on: cAMP phosphodiesterases encoded by cDNAs of pTM3, pTM72, pJC44x and pRATDPD; test: Biochemical analysis of cell lysates
[9] = tested on: DPDE2 (plasmid pADH46R, cDNA truncated at 5' end); conditions: 1 μM 3H cAMP, SD in parentheses
[10] = tested on: DPDE4 (plasmid pADH72, cDNA truncated at 5' end); conditions: 1 μM 3H cAMP, SD in parentheses
[11] = tested on: DPDE3 (plasmid pADH43, cDNA truncated at 5' end); conditions: 1 μM 3H cAMP, SD in parentheses
[12] = tested on: yeast strain 10DAB transformed with pAD72 (human family IV phosphodiesterase); test: Whole cell screen: heat treatment viability of transformed yeast; conditions: 2 h at 30° C. then 50° C. for 30 min; for effect on viable cells of the culture after heat treatment (in words): concentrations up to 100 μM
[13] = biological target: pJC44x human cyclic AMP phosphodiesterase; test: Phosphodiesterase activity of 10DAB yeast extract expressing human cDNA (kinetics, inhibitor sensitivity); conditions: read-out: EC50 (inhibitor concentration at 50% enzyme velocity); 1.0 μM cAMP
[14] = biological target: pL22 Met (pTM22-like) human cyclic AMP phosphodiesterase (Homo sapiens, UniProt Q13946); test: as above
pL22 Met (pTM22-like) human cyclic AMP phosphodiesterase, sequence (Q13946 with tags, fused parts or gaps): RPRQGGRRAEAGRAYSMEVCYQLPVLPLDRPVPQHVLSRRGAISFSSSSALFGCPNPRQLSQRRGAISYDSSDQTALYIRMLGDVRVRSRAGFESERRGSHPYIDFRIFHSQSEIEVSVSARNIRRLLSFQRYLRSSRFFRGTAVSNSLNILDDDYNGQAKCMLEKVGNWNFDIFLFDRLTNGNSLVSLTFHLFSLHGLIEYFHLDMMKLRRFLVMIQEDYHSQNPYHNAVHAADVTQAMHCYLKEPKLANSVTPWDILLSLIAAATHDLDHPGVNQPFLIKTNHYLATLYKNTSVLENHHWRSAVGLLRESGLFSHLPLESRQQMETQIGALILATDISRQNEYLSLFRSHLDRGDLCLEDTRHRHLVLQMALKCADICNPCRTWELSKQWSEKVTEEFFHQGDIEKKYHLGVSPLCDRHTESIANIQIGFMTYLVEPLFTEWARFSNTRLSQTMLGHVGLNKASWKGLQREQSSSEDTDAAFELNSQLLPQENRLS

yeast PDE2 = yeast PDE2 (Saccharomyces cerevisiae, UniProt P06776); test: Inhibition of phosphodiesterases by chemicals, cell free extracts of 10DAB yeast
yeast PDE2, sequence (P06776 whole entry): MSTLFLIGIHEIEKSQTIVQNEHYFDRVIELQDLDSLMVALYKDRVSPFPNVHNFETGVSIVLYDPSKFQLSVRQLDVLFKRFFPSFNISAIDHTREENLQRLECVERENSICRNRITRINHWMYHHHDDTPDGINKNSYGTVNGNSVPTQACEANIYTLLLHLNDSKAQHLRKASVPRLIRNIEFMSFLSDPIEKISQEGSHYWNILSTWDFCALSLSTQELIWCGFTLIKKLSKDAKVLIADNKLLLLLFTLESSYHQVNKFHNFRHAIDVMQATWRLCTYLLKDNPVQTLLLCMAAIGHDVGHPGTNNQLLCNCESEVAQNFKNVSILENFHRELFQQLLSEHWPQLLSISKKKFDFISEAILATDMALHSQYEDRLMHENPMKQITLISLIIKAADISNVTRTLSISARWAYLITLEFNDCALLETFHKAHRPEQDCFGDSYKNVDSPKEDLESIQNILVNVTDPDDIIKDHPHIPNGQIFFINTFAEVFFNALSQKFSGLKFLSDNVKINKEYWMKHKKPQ

DPDE4 (plasmid pADH72C) [15] = biological target: T3, DPDE4 (plasmid pADH72C) (Homo sapiens, UniProt Q07343); test: biochemical
T3 sequence (Q07343 whole entry): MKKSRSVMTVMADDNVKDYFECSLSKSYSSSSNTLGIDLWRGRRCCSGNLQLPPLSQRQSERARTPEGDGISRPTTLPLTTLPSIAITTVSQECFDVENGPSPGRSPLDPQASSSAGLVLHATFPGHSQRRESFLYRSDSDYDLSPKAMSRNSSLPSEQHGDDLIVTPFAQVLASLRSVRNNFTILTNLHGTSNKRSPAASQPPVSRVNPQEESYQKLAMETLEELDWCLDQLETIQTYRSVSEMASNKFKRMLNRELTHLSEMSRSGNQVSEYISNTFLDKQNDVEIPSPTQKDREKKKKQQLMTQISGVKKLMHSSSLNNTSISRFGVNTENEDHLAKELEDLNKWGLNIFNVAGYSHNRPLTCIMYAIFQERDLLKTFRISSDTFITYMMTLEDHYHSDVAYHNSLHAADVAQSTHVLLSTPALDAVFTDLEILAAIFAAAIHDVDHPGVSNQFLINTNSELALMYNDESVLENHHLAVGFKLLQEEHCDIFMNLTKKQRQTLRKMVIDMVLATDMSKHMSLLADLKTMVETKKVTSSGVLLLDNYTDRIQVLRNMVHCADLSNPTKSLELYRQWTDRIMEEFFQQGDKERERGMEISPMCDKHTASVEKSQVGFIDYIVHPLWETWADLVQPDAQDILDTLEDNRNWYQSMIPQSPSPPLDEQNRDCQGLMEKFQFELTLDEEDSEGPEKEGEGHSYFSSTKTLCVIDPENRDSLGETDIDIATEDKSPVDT

DPDE4 (plasmid pADH72C) [16] = biological target: T3, DPDE4 (plasmid pADH72C); conditions: 1 μM 3H cAMP, SD in parentheses
[17] = biological target: T4, pRATDPD gene product (rat DPD cAMP phosphodiesterase) (Rattus norvegicus, UniProt P14646); conditions: cGMP 100 fold over substrate concentration (5 μM cAMP, cGMP up to 500 μM)
T4 sequence (P14646 220-736): T1 sequence (P14646 220-736)

SMILES | pIC50 [4] | pIC50 [6] | pIC50 [7] | pIC50 [9] | pIC50 [10] | pIC50 [11] | pEC50 [13] | pEC50 [14] | pIC50 ([5]; read-out: IC50) | IC50s fold higher than for their specific PDE classes [6] | also measured
COc1ccc(C2CNC(=O)C2)cc1OC1CCCC1 (centres unmarked) [Rolipram] | < 3.00 | 6.30 to 6.70 | 3.00 | 6.30 | […] | 6.74 | […] | < 3.52 |  |  | inhibition of rat DPD enzymatic activity (in words) [1]: readily inhibited; also recorded: most effective inhibitors; sensitivity to heat shock (in words) [2]: much more sensitive to heat shock; heat shock phenotype (in words) [3]: become heat shock sensitive again; pIC50 [5]: < 3.13; sensitivity of the cAMP phosphodiesterases to the agent (in words) [8]: sensitive; cells remaining viable out of approximately 150,000 cells ([12]; 100 μM): less than 10 cells; effect on viable cells of the culture after heat treatment (in words) [12]: reduced the number of viable cells
CCCCOc1cc(CC2CNC(=O)N2)ccc1OC (centres unmarked) [RO 20-1724] |  | 5.00 to 6.00 | 3.00 |  |  |  | 5.52 | < 3.52 |  |  | inhibition at 0.1 µM [1]: 35%; inhibition at 1 µM [1]: 52%; inhibition at 10 µM [1]: 79%; inhibition at 100 µM [1]: 92%; inhibition of rat DPD enzymatic activity (in words) ([1]; listed as R020 1724): readily inhibited; also recorded: most effective inhibitors; inhibition at 100 µM (yeast PDE2): 3%
Cc1[nH]c(=O)c(C#N)cc1-c1ccncc1 [Milrinone] | < 3.00 |  |  | 4.23 |  | 4.80 | 4.52 | 4.52 | < 3.00 |  | effect on viable cells of the culture after heat treatment (in words) [12]: no observable effect
CC(C)Cn1c(=O)n(C)c(=O)c2[nH]cnc21 [IBMX] | 4.96 |  |  | 5.03 | 4.82 | 5.00 |  |  | 4.92 |  | inhibition at 250 µM [1]: 87%; inhibition of the human dunce-like PDEs (in words) ([6]; no detectable difference in IC50 between clones): inhibited; pIC50 (DPDE4 (plasmid pADH72C) [15]): 4.96; inhibition at 250 µM (yeast PDE2): 0%
Cn1c(=O)c2[nH]cnc2n(C)c1=O [Theophylline] |  |  |  |  |  |  | 3.52 |  |  |  | 
CCCCn1c(=O)c2c(ncn2CC(C)=O)n(CCCC)c1=O [Denbufylline] | 5.82 | 5.00 to 6.00 | 5.52 to 6.00 | 6.66 | 6.70 | 7.00 |  |  | 5.52 |  | 
CCCOc1ccccc1-c1nc2nn[nH]c2c(=O)[nH]1 [Zaprinast] | 3.89 |  |  | 3.92 | 4.05 | 4.06 |  |  | 4.24 | 10 to 1000 fold | 
COCc1nc2c([nH]1)c(=O)n(C)c(=O)n2CC(C)C [8-Methoxy IBMX] | 3.92 |  |  | 3.66 | 3.66 | 3.80 |  |  |  | 10 to 1000 fold | pIC50 ([5]; pADDR, 1 μM 3H cAMP, SD in parentheses, read-out: IC50): 3.77; pIC50 (DPDE4 (plasmid pADH72C) [16]): 3.72
Nc1nc2c(ncn2[C@@H]2O[C@@H]3COP(=O)(O)O[C@H]3[C@H]2O)c(=O)[nH]1 [cGMP] | < 3.00 |  |  | < 3.00 | < 3.00 | < 3.00 | < 3.52 | < 3.52 | < 3.00 |  | inhibition of cAMP phosphodiesterase activity by cGMP [17]: did not inhibit; pIC50 (DPDE4 (plasmid pADH72C) [15]): < 3.00
CN(C(=O)CCCOc1ccc2[nH]c(=O)ccc2c1)C1CCCCC1 [Cilostamide] | < 3.00 |  |  | 3.85 | 4.26 | 4.05 |  |  | < 3.00 | 10 to 1000 fold | 
